{"source": "patent US11154551B2", "about": "“HDAC1,2 inhibitors and methods of using the same” (UNIVERSITY OF UTAH RESEARCH FOUNDATION, priority 2014, dated 2021)", "key": {"[1]": {"tested_on": "Karpas-422 and SUDHL4 cells", "assay": "Western blot of acid-extracted histones (H4K91ac, H4K16ac, monoubiquitinated H4)", "assay_type": "cell-based, human", "conditions": "for monoubiquitinated form of H4 after doxorubicin: 48 h pretreatment, then 50 nM doxorubicin 4 h or 8 h", "protocol": "Western analysis was performed with anti-BBAP antibody and histone H3 was used as a loading control. Whole cell lysate of HeLa cells was prepared following transfection of cells with either non-targeting or two different BBAP siRNAs. These extracts served as negative controls for the signal from BBAP antibody. (B): SUDHL4 and Karpas-422 cells were treated with DMSO or 2 μM ACY-957 for 48 hr prior to chromatin extraction. Western analysis was done using anti-H4K91ac or anti-H4K16ac and histone H4 served as a loading control. (C): HeLa cells were transfected with either wild type H4 or H4K91R mutant constructs for 65 hours prior to extraction of histones by trichloroacetic acid. Western blot analysis was performed with anti-FLAG antibody. (D): SUDHL4 cells and Karpas-422 were treated with DMSO or 2 μM ACY-957 for 24 hours and histones were extracted by TCA precipitation. Western blotting with anti-H4 was performed to detect H4 and monoubiquitylated H4. (E): SUDHL4 cells and Karpas-422 were treated with DMSO or 2 μM ACY-957 for 48 hours and treated with 50 nM doxorubicin for 4 hr or 8 hr prior to histone extraction. Histones were extracted by TCA precipitation and western blotting with anti-H4 was performed to detect H4 and monoubiquitinated H4.\nHistone Extraction by Trichloroacetic Acid. DLBCL cells were treated with ACY957 in 25 cm^2 flasks. Following treatment, cells were pelleted, washed with PBS and the pellet was re-suspended in 400 μl of lysis buffer with protease inhibitors (200 μl 0.5M HEPES.KOH, pH 7.9, 15 μl 1M MgCl2, 50 μl 2M KCl, 50 μl 0.1M DTT, 100 μl 0.4M NEM, 10 μl 1000× Aprotinin/Leupeptin, 10 μl 1000× Pepstatin A, and water to a total volume of 10 m L plus Roche protease inhibitor cocktail). To the cell suspension, a final concentration of 0.2M sulfuric acid was added and samples were sonicated twice using the Fisher FB120 sonicator at amplitude of 50% and with 5 pulses. After sonication, proteins were extracted for 30 minutes at 4° C. with end over end rotation. Samples were then centrifuged at 13,000 rpm for 10 minutes at 4° C. and histones were precipitated with a 20% final concentration of trichloroacetic acid and incubated on ice for 30 minutes or moved directly to −80° C. overnight. Following precipitation, samples were centrifuged again for 10 minutes and the resulting pellet was washed with cold acidified acetone (acetone+0.05N HCl). The histone pellets were centrifuged at the same settings but for 5 minutes then washed again with cold acetone. After this wash the pellets were centrifuged for another 5 minutes and the acetone was discarded. Pellets were dried in an incubator at 37° C. for 5 minutes then re-suspended in 50 μl 2×SDS sample buffer+β-mercaptoethanol and 8 μl 1M Tris HCl pH 8 to neutralize. The samples were then boiled for 8 minutes at 95° C. and if there was still visible pellet they were either boiled longer, sonicated, had more sample buffer added or a combination thereof.\nWe treated Karpas-422 or SUDHL4 cells with DMSO or ACY-957 for 48 h prior to the incubation for 4 h or 8 h in the presence of doxorubicin."}, "[2]": {"tested_on": "non-transformed, mouse bone marrow Pro-B derived Baf3 cells or cord blood stem cells", "assay": "cell death in non-transformed cells", "assay_type": "cell-based", "conditions": "2 μM, within 72 hr", "text": "Therefore, transformed lymphoma cells are more sensitive to HDAC1,2 inhibition when compared to the untransformed normal B-cells. HDAC1,2 inhibitor causes replication fork collapse in S-phase to trigger DNA damage response, and transformed cancer cells have increased DNA replication when compared to normal B cells. […] In addition to this property, EZH2^GOF DLBCL cells also have increased DNA repair compared to EZH2^WT DLBCL cells (FIG. 34A), which can also be targeted by HDAC1,2 inhibitor as it impairs the HDAC1,2 regulated DNA repair processes used by EZH2^GOF DLBCL cells for their survival."}}, "data": [{"compound": "Nc1ccc(-c2cccs2)cc1NC(=O)c1ccc2nc(N3CCNCC3)ccc2c1", "note": "[ACY-957, N-(2-amino-5-(thiophen-2-yl)phenyl)-2-(piperazin-1-yl)quinoline-6-carboxamide]", "values": [{"measurement": "global H4K16ac levels", "setting": "[1]; 2 μM, 48 hr", "result": "increased global levels of H4K16ac"}, {"measurement": "global H4K91ac levels", "setting": "[1]; 2 μM, 48 hr", "result": "increased global H4K91ac levels"}, {"measurement": "global monoubiquitinated form of H4", "setting": "[1]; 30 h or 48 h, without doxorubicin", "result": "no change in global levels of the slow migrating monoubiquitinated form of H4"}, {"measurement": "monoubiquitinated form of H4 after doxorubicin", "setting": "[1]", "result": "significant reduction to complete absence of the slow migrating monoubiquitinated form of H4"}, {"measurement": "monoubiquitinated form of H4 after doxorubicin", "setting": "[1]; listed as ACY957", "result": "decrease in the BBAP-mediated H4K91 monoubiquitination"}, {"measurement": "cell death", "setting": "[2]", "result": "did not cause any cell death"}]}]}
